Assay results taken from US9309304B2, “Glycation cross-link breakers to increase resistance to enzymatic degradation” (NEW YORK SOCIETY FOR THE RUPTURED AND CRIPPLED MAINTAINING …, priority 2012, dated 2016).

How the values were obtained:
[1] = Randomized control trial of treated grafts for ACL reconstruction; format: in vivo; settings: for relative risk of negative outcomes (Lachman test, pivot-shift test, Drawer test): 6 and 12 months post-surgery
Protocol: For an ACL reconstruction, a bone-patellar tendon-bone graft (other eligible grafts include hamstring tendon) is harvested from a cadaveric donor per standard collection procedure. Before freezing, the graft tissue is immersed in a sterile filtered isotonic buffered saline solution containing Alagebrium at a concentration of 0.1 mM for 8 hours at a temperature of ranging from about 4° C. to 37° C. Following incubation with the cross-link breaking reagent, the specimen is rinsed with sterile isotonic buffered saline and then is immersed in a rinsing fluid, such as sterile isotonic buffered saline, with a volume of at least 10 times greater than the estimated volume of the specimen. The specimen remains immersed in the rinse fluid for 30 minutes. The rinsing and immersion step is repeated twice more with fresh rinse solution each time. The tissue specimen is then removed from the fluid, excess liquid is allowed to drain, any visible fluid is gently blotted off with sterile gauze, and is then frozen as per standard procedure. […] For an ACL reconstruction, a bone-patellar tendon-bone graft (other eligible grafts include hamstring tendon) is harvested from the patient as per standard collecting procedure. Before use, the graft tissue is wrapped in sterile gauze and is soaked in a sterile filtered isotonic buffered saline solution containing Alagebrium at a concentration of 100 mM for 15 minutes at a temperature ranging from about 4° C. to 37° C. Following incubation with the cross-link breaking reagent, the specimen is unwrapped, rinsed with sterile istonic buffered saline and then is wrapped again with sterile gauze and immersed in a rinsing fluid, such as sterile isotonic buffered saline, with a volume of at least 10 times greater than the estimated volume of the specimen. The specimen remains immersed in the rinse fluid for 15 minutes. The tissue specimen is then removed from the fluid, unwrapped, excess liquid is allowed to drain, any visible fluid is gently blotted off with sterile gauze, and then the graft is utilized as per standard procedure.

[2] = tested on: collagenase; test: CEMKATS test of Alagebrium-treated 7-day glycated tendon fibers (Example 6); format: biochemical; settings: 15 mM Alagebrium 12 hours
Protocol: 7-day glycated (cross-linked) tendon fibers are immersed for 12 hours in a solution of 15 mM Alagebrium dissolved in PBS at a temperature ranging from about 4° C. to 37° C. The fibers are removed from the solution, rinsed in PBS, and then soaked in fresh PBS for 15 minutes. After this soak, the fibers are removed from the PBS bath, rinsed with fresh PBS. The visible PBS is blotted off and the fibers are interfaced with the CEMKATS system. Mechanical strain is applied as described in Example 1. The fiber reaches a peak stress during loading and subsequently relaxes to an equilibrium stress. Once the specimen reaches equilibrium, collagenase would be added. The resulting change in load would be observed and recorded (which would be converted post-hoc to stress).

[3] = AGE cross-links in treated graft tissue by FTIR spectrum
Protocol: For an ACL reconstruction, a bone-patellar tendon-bone graft (other eligible grafts include hamstring tendon) is harvested from a cadaveric donor per standard collection procedure. Before freezing, the graft tissue is immersed in a sterile filtered isotonic buffered saline solution containing Alagebrium at a concentration of 0.1 mM for 8 hours at a temperature of ranging from about 4° C. to 37° C. Following incubation with the cross-link breaking reagent, the specimen is rinsed with sterile isotonic buffered saline and then is immersed in a rinsing fluid, such as sterile isotonic buffered saline, with a volume of at least 10 times greater than the estimated volume of the specimen. The specimen remains immersed in the rinse fluid for 30 minutes. The rinsing and immersion step is repeated twice more with fresh rinse solution each time. The tissue specimen is then removed from the fluid, excess liquid is allowed to drain, any visible fluid is gently blotted off with sterile gauze, and is then frozen as per standard procedure. For an ACL reconstruction, a bone-patellar tendon-bone graft (other eligible grafts include hamstring tendon) is harvested from the patient as per standard collecting procedure. Before use, the graft tissue is wrapped in sterile gauze and is soaked in a sterile filtered isotonic buffered saline solution containing Alagebrium at a concentration of 100 mM for 15 minutes at a temperature ranging from about 4° C. to 37° C. Following incubation with the cross-link breaking reagent, the specimen is unwrapped, rinsed with sterile istonic buffered saline and then is wrapped again with sterile gauze and immersed in a rinsing fluid, such as sterile isotonic buffered saline, with a volume of at least 10 times greater than the estimated volume of the specimen. The specimen remains immersed in the rinse fluid for 15 minutes. The tissue specimen is then removed from the fluid, unwrapped, excess liquid is allowed to drain, any visible fluid is gently blotted off with sterile gauze, and then the graft is utilized as per standard procedure. […]

[4] = Relative fluorescence of solubilized fibers; format: physicochemical, rat; settings: 7 days of 0.2 M ribose exposure, about 460 nm
Protocol: Ribose incorporation into fibers over time was assessed by fluorescence of solubilized fibers following 0 to 10 days of incubation (Verzijl et al. 2002). Fibers were incubated in 0.2 M ribose solution (solution was exchanged with fresh ribose solution at day 3) and sample fibers were removed daily, rinsed in PBS, and then stored at 4° C. until the end of the time course. Fibers were weighed, then dissolved at 60° C. in a 1:20 dilution of papain (Carica Papaya, Roche Diagnostics, Indianapolis, Ind.) in buffer per the commercial protocol at a concentration of 1 mg tendon per 50 uL of papain solution. Relative fluorescence was measured at about 460 nm using a spectrophotometer (340 ATTC, Tecan US, Chapel Hill, N.C.) as reported by Verzijl et al. 2002. Maximum fluorescence was estimated from measurements of fibers incubated in ribose for 5 weeks.

[5] = cadaveric bone-patellar tendon-bone graft, 0.1 mM for 8 hours

Compound: Cc1sc[n+](CC(=O)c2ccccc2)c1C.[Cl-] [Alagebrium, 3-phenacyl-4,5-dimethylthiazolium chloride]
- surgical outcome of ACL reconstruction ([1]; operating room treated autograft, 100 mM for 15 minutes): improved surgical outcome
- surgical outcome of ACL reconstruction ([1]; tissue bank treated graft, 0.1 mM for 8 hours): improved surgical outcome
- relative risk of negative outcomes (Lachman test, pivot-shift test, Drawer test) ([1]; versus placebo-treated grafts, operating room treated autograft): lower relative risk
- relative risk of negative outcomes (Lachman test, pivot-shift test, Drawer test) ([1]; versus untreated grafts, tissue bank treated graft): lower relative risk
- EMK function values versus cross-linked control specimens ([2]; higher strain (above about 3%)): higher value for the control specimens than the Alagebrium-treated specimens
- EMK function values versus cross-linked control specimens ([2]; low strain (less than about 1.25%)): lower for controls than Alagebrium-treated specimens
- amounts of AGE cross-links (AGE associated absorption peak, FTIR) ([3]; autologous bone-patellar tendon-bone graft, 100 mM for 15 minutes): significantly decreased amounts of AGE cross-links
- amounts of AGE cross-links (AGE associated absorption peak, FTIR) [3, 5]: significantly decreased amounts of AGE cross-links
- stiffness of treated specimen [3, 5]: less stiff after treatment

Compound: O=C[C@H](O)[C@H](O)[C@H](O)CO [ribose, D-Ribose]
- relative fluorescence of solubilized rat tail tendon [4]: significantly increased
